Data as given in PMC7497625, “Machine-Vision-Enabled Salt Dissolution Analysis” (Analytical Chemistry, 2020).
≈ marks a conversion by molar mass, not a printed value. Marks after values point to notes of the source that are not given here.

Tests used:
[1] = Machine-vision-based single-particle analysis (SPA) solubility measurement, pH-solubility profile; assay type: physicochemical
Description: The SPA measurements were carried out as already previously described by Svanbäck et al. and Štukelj et al.[17],[19],[20] Briefly, the two main components of the SPA method are the flow-through setup and the analysis software. The flow-through setup enables trapping and machine-vision tracking of drug particles under steady flow–sink–conditions. The average measurement time is 5 min. The captured images are then analyzed using custom-made software, which is capable of semiautomatic particle recognition and tracking of the individual particle morphology throughout the measurement. The decrease in size, under sink conditions, according to Noyes and Whitney, is directly proportional to the equilibrium solubility of the compound. In this way, the solubility data from the images is extracted. Depending on the number of particles, the reported solubility values are an average of up to several hundred individual particles. For in-depth description and visuals, readers are directed to the three original papers cited above.

[2] = Miniaturized shake-flask (SF) experiment in USP buffers with HPLC-UV, pH measurement and XRPD of remaining solids; assay type: physicochemical
Description: For NAP, both phosphate and borate buffers were used at pH 8.0. […] At 48, 72, and 96 h the rotation was stopped, pHs were measured, and samples were centrifuged at constant temperature and 21 100g for 15 min prior to sampling of the supernatant. The supernatants were appropriately diluted and analyzed with reverse-phase HPLC-UV. After 96 h, the solids were extracted and analyzed using XRPD. […] Drug concentration in the supernatants was determined using an Agilent High Performance Liquid Chromatography (HPLC) 1260 system (Agilent Technologies, Germany) coupled with a Phenomenex Gemini NX-C18, 3 μm, 100 × 4.6 mm column (Phenomenex, Torrace, CA). The temperature of the column was set to 30 °C. The mobile phase was 0.2% H3PO4:acetonitrile (40:60, v:v for DIC and 50:50, v:v for NAP) with a flow rate of 1 mL/min. The injection volume was 20 μL, and detection was performed at 276 nm for DIC and 254 nm for NAP. Standard solutions of DIC and NAP were prepared in 0.2% H3PO4:acetonitrile (50:50, v:v) and analyzed with HPLC-UV to construct the calibration curve. […] To determine the solid-state form of the initial samples, XRPD diffractograms were recorded with an Aeris diffractometer (Malvern Panalytical B.V., Almelo, The Netherlands) using Cu Kα radiation (λ = 1.540598 Å) and a divergence slit of 0.76 mm. […] Measurements were performed in triplicate with independent samples. Additional measurements using XRPD were performed for the remaining solids after the 96 h miniaturized SF experiments.

[3] = cited from earlier work
[4] = 0.05 M USP buffer Borate pH 8.0
[5] = 0.05 M USP buffer Borate pH 9.0
[6] = 0.05 M USP buffer Phosphate pH 6.0
[7] = 0.05 M USP buffer Phosphate pH 7.0
[8] = 0.05 M USP buffer Phtalate pH 3.0
[9] = 0.05 M USP buffer Phtalate pH 4.0
[10] = 0.05 M USP buffer Phtalate pH 5.0
[11] = starting material free acid, after 96 h

| pHmax′ SPA (apparent pHmax) ([1]; intersect of the two regions of the SPA pH-solubility profile, started with anhydrous salt) | pHmax ([1]; linear extrapolation of pH-corrected SPA values of free acid to the SF-determined solubility of the salt (Figure 2b / 5b)) | solid-state form at end of SF experiment (XRPD) ([2]; starting material anhydrous salt, initial pH 6.0 and 8.0) | solid-state form at end of SF experiment (XRPD) ([2]; starting material salt, initial pH 2.0 and 4.0) | solubility at 5 min ([1]; read-out: S0 SPA (intrinsic solubility)) [µg/mL] | Measured pH of miniaturized SF experiment [2, 4] | Measured pH of miniaturized SF experiment [2, 5] | Measured pH of miniaturized SF experiment ([2]; 0.05 M USP buffer HCl pH 2.0) | Measured pH of miniaturized SF experiment [2, 6] | Measured pH of miniaturized SF experiment [2, 7] | Measured pH of miniaturized SF experiment [2, 8] | Measured pH of miniaturized SF experiment [2, 9] | Measured pH of miniaturized SF experiment [2, 10] | solid-state form at end of SF experiment (XRPD) ([2]; starting material anhydrous salt, pH 8.0, borate and phosphate buffer) | solid-state form at end of SF experiment (XRPD) ([2]; starting material salt, initial pHs 2.0, 4.0 and 6.0) | Measured pH of miniaturized SF experiment ([2]; 0.05 M USP buffer Phosphate pH 8.0) | Structure (SMILES) | SPA solubility upon disproportionation compared to the free acid ([1]; region below pH 8) | pHmax lit. [3] | solid-state form at end of SF experiment (XRPD) [2, 11] |
| --- | --- | --- | --- | --- | --- | --- | --- | --- | --- | --- | --- | --- | --- | --- | --- | --- | --- | --- | --- |
| 7.35 | 7.98 | converted into its hydrate form | converted into a free acid form |  |  |  |  |  |  |  |  |  |  |  |  | O=C(O)Cc1ccccc1Nc1c(Cl)cccc1Cl [diclofenac sodium] | higher solubility upon disproportionation | ∼8 ^a^, ^e |  |
|  |  |  |  | 0.6 ± 0.3 (≈ 2.03 µM) | 7.0 | 7.8 | 2.0 | 6.0 | 6.9 | 3.00 | 4.0 | 4.9 |  |  |  | O=C(O)Cc1ccccc1Nc1c(Cl)cccc1Cl [diclofenac, Diclofenac] |  |  | remained in the same form throughout the experiment |
|  |  |  |  |  |  |  |  |  |  |  |  |  | converted into its hydrate form | converted into a free acid |  | COc1ccc2cc([C@H](C)C(=O)O)ccc2c1 [naproxen sodium] |  | ∼8 ^c |  |
|  |  |  |  |  | 6.0 | 6.8 | 1.9 | 5.8 | 6.6 | 3.0 | 4.1 | 5.0 |  |  | 6.9 | COc1ccc2cc([C@H](C)C(=O)O)ccc2c1 [naproxen, Naproxen] |  |  | the same form remained throughout the experiment |
